Source: ChEMBL document CHEMBL3526064, “Sequential metabolism of AMG 487, a novel CXCR3 antagonist, results in formation of quinone reactive metabolites that covalently modify CYP3A4 Cys239 and cause time-dependent inhibition of the enzyme” (Drug Metab Dispos, 2012)
pIC50, pKi: −log10 of the molar value.

Assays:
CYP3A4 [1] = target: T1, CYP3A4 (Homo sapiens, UniProt P08684); test: (§1) Inhibition of CYP3A4 in human liver microsomes using midazolam as substrate assessed as residual enzyme activity after 2 to 10 mins by LC-MS/MS analysis; assay type: ADME; conditions: human, liver microsomes, probe midazolam
T1 sequence (P08684 whole entry): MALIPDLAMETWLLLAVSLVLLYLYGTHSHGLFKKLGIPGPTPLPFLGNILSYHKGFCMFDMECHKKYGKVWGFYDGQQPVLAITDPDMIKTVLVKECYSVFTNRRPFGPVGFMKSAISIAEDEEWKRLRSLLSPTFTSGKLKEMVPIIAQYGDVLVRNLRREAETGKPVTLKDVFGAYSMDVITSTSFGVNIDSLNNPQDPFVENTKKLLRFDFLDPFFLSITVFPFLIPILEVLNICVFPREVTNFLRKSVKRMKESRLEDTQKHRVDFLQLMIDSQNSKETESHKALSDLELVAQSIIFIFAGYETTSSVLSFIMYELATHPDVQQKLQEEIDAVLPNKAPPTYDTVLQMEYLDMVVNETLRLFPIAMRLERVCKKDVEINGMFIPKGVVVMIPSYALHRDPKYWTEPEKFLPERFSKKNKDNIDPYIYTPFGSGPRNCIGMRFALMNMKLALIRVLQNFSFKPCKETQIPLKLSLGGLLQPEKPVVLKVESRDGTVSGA

Cytochrome P450 3A4 [2] = target: T2, Cytochrome P450 3A4 (Homo sapiens, UniProt P08684); test: as §1; assay type: ADME
T2 sequence (P08684 whole entry): as above

Cytochrome P450 3A4 [3] = target: T2, Cytochrome P450 3A4; test: Inactivation of recombinant CYP3A4 (unknown origin) using midazolam as substrate assessed as partition ratio up to 30 uM preincubated for 5 mins followed by dialysis measured after 4 hrs; assay type: ADME; conditions: recombinant enzyme
Cytochrome P450 3A4 [4] = target: T2, Cytochrome P450 3A4; test: Inactivation of recombinant CYP3A4 (unknown origin) using testosterone as substrate assessed as partition ratio up to 30 uM preincubated for 5 mins followed by dialysis measured after 4 hrs; assay type: ADME; conditions: recombinant enzyme
Cytochrome P450 3A4 [5] = target: T2, Cytochrome P450 3A4; test: Ratio of Kinact to Ki for CYP3A4 in human liver microsomes using testosterone as substrate; assay type: ADME
Cytochrome P450 3A4 [6] = target: T2, Cytochrome P450 3A4; test: Time dependent inhibition of CYP3A4 in human liver microsomes using midazolam as substrate preincubated for 30 mins followed by 10-fold dilution and substrate addition by LC-MS/MS analysis; assay type: ADME
Cytochrome P450 3A4 [7] = target: T2, Cytochrome P450 3A4; test: Ratio of Kinact to Ki for CYP3A4 in human liver microsomes using midazolam as substrate; assay type: ADME
Cytochrome P450 3A4 [8] = target: T2, Cytochrome P450 3A4; test: Time dependent inhibition of CYP3A4 in human liver microsomes assessed as conversion of testosterone to 6beta-hydroxytestosterone 0.1 to 30 uM by LC-MS/MS analysis; assay type: ADME
CYP3A4 [9] = target: T1, CYP3A4; test: (§2) Ratio of IC50 for CYP3A4 in human liver microsomes using midazolam as substrate preincubated for 30 mins followed by 10-fold dilution and substrate addition to IC50 for CYP3A4 in human liver microsomes using midazolam as substrate preincubated for 30 mins followed by 10-fold dilution and substrate addition in presence of NADPH; conditions: probe midazolam, read-out: Ratio IC50
Cytochrome P450 3A4 [10] = target: T2, Cytochrome P450 3A4; test: Time dependent inhibition of CYP3A4 in human liver microsomes assessed as conversion of midazolam to 1'-hydroxymidazolam at 0.1 to 30 uM by LC-MS/MS analysis; assay type: ADME
Cytochrome P450 3A4 [11] = target: T2, Cytochrome P450 3A4; test: Time dependent inhibition of CYP3A4 in human liver microsomes using testosterone as substrate preincubated for 30 mins followed by 10-fold dilution and substrate addition by LC-MS/MS analysis in presence of NADPH; assay type: ADME
Cytochrome P450 3A4 [12] = target: T2, Cytochrome P450 3A4; test: Inhibition of CYP3A4 in human liver microsomes using testosterone as substrate assessed as unbound inhibitor concentration required for half maximal enzyme inactivation after 2 to 10 mins by LC-MS/MS analysis; assay type: ADME
CYP3A4 [13] = target: T1, CYP3A4; test: as §2, with “testosterone” for “midazolam”; conditions: probe testosterone, read-out: Ratio IC50
Cytochrome P450 3A4 [14] = target: T2, Cytochrome P450 3A4; test: Time dependent inhibition of CYP3A4 in human liver microsomes using testosterone as substrate preincubated for 30 mins followed by 10-fold dilution and substrate addition by LC-MS/MS analysis; assay type: ADME
Cytochrome P450 3A4 [15] = target: T2, Cytochrome P450 3A4; test: Inhibition of CYP3A4 in human liver microsomes using midazolam as substrate assessed as unbound inhibitor concentration required for half maximal enzyme inactivation after 2 to 10 mins by LC-MS/MS analysis; assay type: ADME
CYP3A4 [16] = target: T1, CYP3A4; test: (§3) Inhibition of CYP3A4 in human liver microsomes using testosterone as substrate assessed as residual enzyme activity after 2 to 10 mins by LC-MS/MS analysis; assay type: ADME; conditions: human, liver microsomes, probe testosterone
Cytochrome P450 3A4 [17] = target: T2, Cytochrome P450 3A4; test: as §3; assay type: ADME
Cytochrome P450 3A4 [18] = target: T2, Cytochrome P450 3A4; test: Time dependent inhibition of CYP3A4 in human liver microsomes using midazolam as substrate preincubated for 30 mins followed by 10-fold dilution and substrate addition by LC-MS/MS analysis in presence of NADPH; assay type: ADME
Cytochrome P450 3A4 [19] = target: T2, Cytochrome P450 3A4; test: Drug metabolism assessed as recombinant CYP3A4 (unknown origin)-compound formation treated with (R)-N-(1-(3-(4-hydroxyphenyl)-4-oxo-3,4-dihydropyrido[2,3-d]pyrimidin-2-yl)ethyl)-N-([2-3H]pyridin-3-ylmethyl)-2-(4-(trifluoromethoxy)phenyl)acetamide preincubated for 5 mins followed NADPH addition measured after 45 mins by TIC mass chromatographic analysis; assay type: ADME; conditions: recombinant enzyme, 0.75 h
Cytochrome P450 3A4 [20] = target: T2, Cytochrome P450 3A4; test: Drug metabolism assessed as recombinant CYP3A4 (unknown origin)-mediated (R)-N-(1-(3-(3,4-dihydroxyphenyl)-4-oxo-3,4-dihydropyrido[2,3-d]pyrimidin-2-yl)ethyl)-N-(pyridin-3-ylmethyl)-2-(4-(trifluoromethoxy)phenyl)acetamide formation preincubated for 5 mins followed NADPH addition measured after 45 mins by TIC mass chromatographic analysis in presence of GSH; assay type: ADME; conditions: recombinant enzyme, 0.75 h
Cytochrome P450 3A4 [21] = target: T2, Cytochrome P450 3A4; test: Drug metabolism assessed as recombinant CYP3A4 (unknown origin)-mediated (R)-N-(1-(3-(2,4-dihydroxyphenyl)-4-oxo-3,4-dihydropyrido[2,3-d]pyrimidin-2-yl)ethyl)-N-(pyridin-3-ylmethyl)-2-(4-(trifluoromethoxy)phenyl)acetamide formation preincubated for 5 mins followed NADPH addition measured after 45 mins by TIC mass chromatographic analysis in presence of GSH; assay type: ADME; conditions: recombinant enzyme, 0.75 h
Cytochrome P450 3A4 [22] = target: T2, Cytochrome P450 3A4; test: Drug metabolism assessed as recombinant CYP3A4 (unknown origin)-mediated compound formation treated with [3H]-(R)-N-(1-(3-(4-hydroxyphenyl)-4-oxo-3,4-dihydropyrido[2,3-d]pyrimidin-2-yl)ethyl)-N-(pyridin-3-ylmethyl)-2-(4-(trifluoromethoxy)phenyl)acetamide preincubated for 5 mins followed NADPH addition measured after 45 mins by TIC mass chromatographic analysis in presence of GSH; assay type: ADME; conditions: recombinant enzyme, 0.75 h

Work on `C[C@H](c1nc2ncccc2c(=O)n1-c1ccc(O)cc1)N(Cc1cccnc1)C(=O)Cc1ccc(OC(F)(F)F)cc1` yielded a kinact (CYP3A4 [1]) of 0.00147 s⁻¹, a pKi (Cytochrome P450 3A4 [2]) of 5.72 and a Ratio (Cytochrome P450 3A4 [3]) of 36. It also gave a Ratio (Cytochrome P450 3A4 [4]) of 36, a Ratio (Cytochrome P450 3A4 [5]) of 0.13 mL/min/nmol and a pIC50 (Cytochrome P450 3A4 [6]) of 6.19. The Ratio (Cytochrome P450 3A4 [7]) was 0.12 mL/min/nmol, the “inhibition (INH)” value (Cytochrome P450 3A4 [8]) was “Active” and the IC50 shift at 30 min (CYP3A4 [9]) was 24. For the same compound, the “inhibition (INH)” value (Cytochrome P450 3A4 [10]) was “Active”, the pIC50 (Cytochrome P450 3A4 [11]) was 7.17 and the pKi (Cytochrome P450 3A4 [12]) was 6.13. The IC50 shift at 30 min (CYP3A4 [13]) was 31, the pIC50 (Cytochrome P450 3A4 [14]) was 5.68 and the pKi (Cytochrome P450 3A4 [15]) was 6.14. It also gave a kinact (CYP3A4 [16]) of 0.00165 s⁻¹, a pKi (Cytochrome P450 3A4 [17]) of 5.72 and a pIC50 (Cytochrome P450 3A4 [18]) of 7.57.

For `CC(c1nc2ncccc2c(=O)n1-c1ccc(O)c(SC[C@H](NC(=O)[C@@H](N)CCC(=O)O)C(=O)NCC(=O)O)c1O)N(Cc1cccnc1)C(=O)Cc1ccc(OC(F)(F)F)cc1` (single isomer, unassigned), the Drug metabolism (Cytochrome P450 3A4 [19]) was “metabolite_detected”.

For `[3H]c1ncccc1CN(C(=O)Cc1ccc(OC(F)(F)F)cc1)[C@H](C)c1nc2ncccc2c(=O)n1-c1ccc(O)cc1`, the Drug metabolism (Cytochrome P450 3A4 [20]) was “metabolite_detected” and the Drug metabolism (Cytochrome P450 3A4 [21]) was “metabolite_detected”.

For `C[C@H](c1nc2ncccc2c(=O)n1-c1c(O)cc(O)cc1SC[C@H](NC(=O)[C@@H](N)CCC(=O)O)C(=O)NCC(=O)O)N(Cc1cccnc1)C(=O)Cc1ccc(OC(F)(F)F)cc1`, the Drug metabolism (Cytochrome P450 3A4 [19]) was “metabolite_detected”.

In the case of `C[C@H](c1nc2ncccc2c(=O)n1-c1ccc(O)cc1O)N(Cc1cccnc1)C(=O)Cc1ccc(OC(F)(F)F)cc1`, the Drug metabolism (Cytochrome P450 3A4 [19]) was “metabolite_detected”.

With `C[C@H](c1nc2ncccc2c(=O)n1-c1ccc(O)c(O)c1)N(Cc1cccnc1)C(=O)Cc1ccc(OC(F)(F)F)cc1` the Drug metabolism (Cytochrome P450 3A4 [19]) was “metabolite_detected”.

For `CC(c1nc2ncccc2c(=O)n1-c1ccc(O)c(O)c1SC[C@H](NC(=O)[C@@H](N)CCC(=O)O)C(=O)NCC(=O)O)N(Cc1cccnc1)C(=O)Cc1ccc(OC(F)(F)F)cc1` (single isomer, unassigned), the Drug metabolism (Cytochrome P450 3A4 [19]) was “metabolite_detected”.

`C[C@H](c1nc2ncccc2c(=O)n1-c1ccc(O)cc1)N(Cc1ccc[n+]([O-])c1)C(=O)Cc1ccc(OC(F)(F)F)cc1` was tested, and the Drug metabolism (Cytochrome P450 3A4 [22]) was “metabolite_detected”.

For `C[C@H](c1nc2ncccc2c(=O)n1-c1cc(O)c(O)cc1SC[C@H](NC(=O)[C@@H](N)CCC(=O)O)C(=O)NCC(=O)O)N(Cc1cccnc1)C(=O)Cc1ccc(OC(F)(F)F)cc1`, the Drug metabolism (Cytochrome P450 3A4 [19]) was “metabolite_detected”.

`C[C@H](c1nc2ncccc2c(=O)n1-c1cc(O)c(O)c(SC[C@H](NC(=O)[C@@H](N)CCC(=O)O)C(=O)NCC(=O)O)c1)N(Cc1cccnc1)C(=O)Cc1ccc(OC(F)(F)F)cc1` was tested, and the Drug metabolism (Cytochrome P450 3A4 [19]) was “metabolite_detected”.

With `C[C@H](c1nc2ncccc2c(=O)n1-c1cc(SC[C@H](NC(=O)[C@@H](N)CCC(=O)O)C(=O)NCC(=O)O)c(O)cc1O)N(Cc1cccnc1)C(=O)Cc1ccc(OC(F)(F)F)cc1` the Drug metabolism (Cytochrome P450 3A4 [19]) was “metabolite_detected”.
